Source: patent publication US20250108036A1, “COMPOSITIONS FOR REMOVING SENESCENT CELLS AND USES THEREOF” (LIFECEUTIX CO., LTD., priority 2021, published 2025)
Read-outs that look alike come from different tables or passages of the source.

Legend:
Format in all cases: cell-based, human
A549 = assay: CellTiter-Glo cell viability of senescent A549 cancer cells (Example 12, Table 67); conditions: Homo sapiens; for viability at 10 µM: 10 μM test compound; for viability at 30 µM: 30 μM test compound; for viability at 90 µM: 90 μM test compound; for viability at 270 µM: 270 μM test compound
HMGN1 [1] = assay: HMGN1 ELISA in culture medium of foreskin cells (Examples 10, 11; Tables 62, 63, 64); conditions: Homo sapiens; for activity at 30 µM: read-out: HMGN1; for activity at 90 µM: 90 μM test compound
HMGN1 [2] = assay: HMGN1 ELISA in culture medium of A549 cancer cells (Example 12, Table 66); conditions: Homo sapiens; for activity at 90 µM: test compound 90 μM
[3] = test system: foreskin cells in which senescence was induced by doxorubicin; assay: CellTiter-Glo cell viability of doxorubicin-induced senescent foreskin cells (Examples 1-2, 10, 11, 13; Tables 4, 63, 65); conditions: Homo sapiens, 72 h, read-out: Survival (%); for viability at […]: […] test compound; for viability at 10 µM: 10 μM test compound; for viability at 30 µM: 30 μM test compound; for viability at 90 µM: 90 μM test compound
Experimental: After 3 days, cell viability was measured using CellTiter-Glo Luminescent Cell Viability Assay (Promega) or light microscopy.

[4] = A549, doxorubicin-induced senescent A549 cancer cells, 1.1 μM test compound, CellTiter-Glo, read-out: Survival (%)
[5] = A549, doxorubicin-induced senescent A549 cancer cells, CellTiter-Glo, read-out: Survival (%)
[6] = 30 μM test compound, doxorubicin-treated foreskin cells, DMSO = 100
[7] = A549, doxorubicin-induced senescent A549 cells, test compound 30 μM, ELISA, DMSO = 100, read-out: HMGN1 (amount of HMGN1 secreted in the cell culture)
[8] = 1.1 μM test compound, doxorubicin-induced senescent foreskin cells, CellTiter-Glo, 0 μM = 100
[9] = doxorubicin-induced senescent foreskin cells, CellTiter-Glo, 0 μM = 100
[10] = doxorubicin-treated foreskin cells, DMSO = 100
[11] = A549, doxorubicin-induced senescent A549 cells, ELISA, DMSO = 100, read-out: HMGN1 (amount of HMGN1 secreted in the cell culture)

Row | Compound | viability at 1.1 µM (A549; [4]) [%] | viability at 10 µM (A549; [5]) [%] | activity at 30 µM (HMGN1 [1]; [6]) [%] | activity at 30 µM (HMGN1 [2]; [7]) [%] | viability at 1.1 µM [3, 8] [%] | viability at […] [3, 9] [%] | viability at 30 µM (A549; [5]) [%] | viability at 10 µM [3, 9] [%] | also measured
1 | COc1nc(-c2cccnc2)nc2c1CC[C@H]1[C@H](C)C(=O)C(C#N)=C[C@]21C [LX-2315] | 98.2 | 39.2 | 235 | 247 | 75.2 | 2.9 | – | – | –
2 | C[C@H]1[C@H](C)CC[C@]2(C(=O)O)CC[C@]3(C)C(=CC[C@@H]4[C@@]5(C)C[C@@H](O)[C@H](O)C(C)(C)[C@@H]5CC[C@]43C)[C@H]12 [LX-2002, Corosolic acid] | 99.6 | 10.4 | 305 | 314 | 101 | 12.4 | – | – | –
3 | CCCCCCCCCCCCCCCC[P+](c1ccccc1)(c1ccccc1)c1ccccc1 [LX-1201, Hexadecyltriphenylphosphonium] | – | – | – | – | – | – | – | – | viability at 1.1 µM (A549; A549, read-out: Survival (%)): 47.3%; activity at 30 µM (HMGN1 [1]): 311%; activity at 30 µM (HMGN1 [2]; A549, read-out: HMGN1 (amount of HMGN1 secreted in the cell culture)): 289%; viability at 1.1 µM [3]: 23%
4 | C#CC(=O)N1[C@@H](CCCC)Cc2c([nH]c3ncccc23)[C@@H]1c1ccc(F)cc1 [LX-419] | 25.1 | – | 274 | 313 | 10.3 | – | – | – | –
5 | O=C(O)c1cc(/N=N/c2ccc(S(=O)(=O)Nc3ccccn3)cc2)ccc1O [LX-1302, Sulfasalazine, reference compound] | 95.5 | 102 | – | – | 102 | 105 | 102 | 92.2 | viability at 90 µM (A549; [5]): 69.6%; viability at 270 µM (A549; [5]): 19.8%; activity at 90 µM (HMGN1 [1]; [10]): 171%; activity at 90 µM (HMGN1 [2]; [11]): 147%; viability at 30 µM [3, 9]: 79.6%; viability at 90 µM [3, 9]: 52.4%
6 | CCCCS(=N)(=O)CCC(N)C(=O)O (stereo not shown) [LX-2805, Buthionine sulfoximine] | 105 | 96.7 | – | – | 99.4 | 97.3 | 82.9 | 92 | viability at 90 µM (A549; [5]): 73.3%; viability at 270 µM (A549; [5]): 49.3%; activity at 270 µM (HMGN1 [1]; 270 μM test compound, doxorubicin-treated foreskin cells, DMSO = 100): 182%; activity at 270 µM (HMGN1 [2]; A549, doxorubicin-induced senescent A549 cells, test compound 270 μM, ELISA, DMSO = 100, read-out: HMGN1 (amount of HMGN1 secreted in the cell culture)): 158%; viability at 30 µM [3, 9]: 84.2%; viability at 90 µM [3, 9]: 82%; viability at 270 µM ([3]; 270 μM test compound, doxorubicin-induced senescent foreskin cells, CellTiter-Glo, 0 μM = 100): 51.1%
7 | O=C(C(C[N+](=O)[O-])=NO)N1CCN(C(c2ccc(Cl)cc2)c2ccc(Cl)cc2)CC1 [LX-403] | 40.2 | 3.5 | 275 | 320 | 36.9 | 15.5 | – | 6.5 | –
8 | CCCCS[C@@H]1O[C@@H]2O[C@@]3(C)CCC4[C@H](C)CCC([C@H]1C)[C@]42OO3 (stereo partly shown) [LX-503] | 34.4 | – | 284 | 333 | 25.1 | – | – | – | –
9 | C[C@@H]1C(=O)C(C#N)=C[C@]2(C)c3nn(C)c(-c4ccccc4)c3CC[C@@H]12 [LX-2312] | 96.3 | 7.8 | 293 | 339 | 48.6 | 5.2 | – | – | –
10 | C=CC(=O)Nc1cccc(Oc2nc(Nc3ccc(N4CCN(C)CC4)cc3)nc3ccoc23)c1 [LX-2902, Poseltinib, reference compound] | 95.7 | 72.4 | 297 | 271 | 1.9 | – | 31.2 | – | –
11 | CNC(=O)CC[C@]12CCC(C)(C)C[C@H]1[C@H]1C(=O)C=C3[C@@]4(C)C=C(C#N)C(=O)C(C)(C)[C@@H]4CC[C@@]3(C)[C@]1(C)CC2 [LX-2403] | 100 | 3.2 | 319 | 267 | 38.1 | 15.2 | – | – | –
12 | COC(=O)C1=C(C)NC(C)=C(C(=O)OC(C)(C)CN(C)CCC(c2ccccc2)c2ccccc2)C1c1cccc([N+](=O)[O-])c1 (stereo not shown) [LX-2801, Lercanidipine, reference compound] | 89.6 | 58.6 | 241 | 315 | 104 | 98.5 | 14.2 | 51.2 | viability at 30 µM [3, 9]: 25.3%
13 | CCC[C@H]1C(=O)C(C#N)C[C@@]2(C)c3nc(-c4cccc5ncccc45)nc(-c4ccccc4F)c3CC[C@H]12 (stereo partly shown) [LX-2503] | 105 | 31.2 | 297 | 285 | 82.4 | 25.8 | – | – | –
14 | CO[C@@H]1[C@H](N(C)C(=O)c2ccccc2)C[C@H]2O[C@]1(C)n1c3ccccc3c3c4c(c5c6ccccc6n2c5c31)C(=O)NC4 [LX-3307, Midostaurin, reference compound] | 99.8 | 51.9 | 288 | 295 | 108 | 96.1 | 20 | 32.7 | –
15 | C=C(CN(C)C)C(=O)c1cc(C)ccc1C [LX-921] | 99.5 | 91.2 | 311 | – | 99.6 | 89.2 | 90.9 | 89.1 | viability at 90 µM (A549; [5]): 39.7%; activity at 90 µM (HMGN1 [2]; [11]): 175%; viability at 30 µM [3, 9]: 15.7%
16 | CCCCC/C=C\C/C=C\C/C=C\CCCCCCC(=O)O [LX-2705, Dihomogamma-linolenic acid] | 101 | 96.8 | – | – | 102 | 102 | 100 | 72.1 | viability at 90 µM (A549; [5]): 61.2%; activity at 90 µM (HMGN1 [1]; [10]): 202%; activity at 90 µM (HMGN1 [2]; [11]): 160%; viability at 30 µM [3, 9]: 45.5%; viability at 90 µM [3, 9]: 31.7%
17 | COCC1Cc2c([nH]c3ccccc23)[C@H](c2ccc(C(=O)NC3CC3)cc2F)N1C(=O)CCl (stereo partly shown) [LX-413] | 10.1 | – | 287 | 322 | 0.5 | – | – | – | –
18 | Cc1onc(C(=O)N2CCN(C(c3ccc(Cl)cc3)c3ccc(OCc4cn(CCNc5cccc6c5C(=O)N(C5CCC(=O)NC5=O)C6=O)nn4)cc3)CC2)c1[N+](=O)[O-] (stereo not shown) [LX-437, 4-((2-(4-((4-((4-chlorophenyl)(4-(5-methyl-4-nitroisooxazol-3-carbonyl)piperazin-1-yl)methyl)phenoxy)methyl)-1H-1,2,3-triazol-1-yl)ethyl)amino)-2-(2,6-dioxopiperidin-3-yl)isoindolin-1,3-dione] | 93.6 | – | 309 | 301 | 86.2 | 10.9 | – | – | –
